In patent US11098083B2, “Peptide that regulates fat metabolism and method for regulating fat metabolism” (SHENZHEN INSTITUTES OF ADVANCED TECHNOLOGY, priority 2017, dated 2021):
Ends that are not written are not given here.

How the values were obtained:
HFD mice = test: gavage of peptides in HFD mice: triglyceride in feces, week 7; assay type: in vivo, C57BL/6 mice; conditions: gavage 2 pmol/g, feces of week 7, compared with HFD control group, FIG. 7B
Experimental: Feces of each mouse may be collected in week 7, baked at 60° C. for 3 days to ensure complete dryness. Then, 1 mg of the feces may be collected and soaked in 1 ml of a mixed solution consisting of chloroform and methanol in a ratio of 2:1. The soaked feces may then be disrupted with a tissue homogenizer and centrifuged to obtain a supernatant. The supernatant may be detected for triglyceride by the Roche blood biochemical analyzer. Experimental results are shown in FIG. 7B. **: P<0.01, ***: P<0.001.
(§1) Feces of the mice may be collected in the 7th week of the experiment and baked at 60° C. for 3 days to ensure complete dryness. Then, 1 mg of the feces may be weighed and soaked in 1 ml of a mixed solution containing chloroform and methanol in a ratio of 2:1. The feces with the mixed solution may be disrupted by a tissue homogenizer and centrifuged to obtain a supernatant. The supernatant may be detected for triglyceride by the Roche blood biochemical analyzer.
as §1, with “2:1.The” for “2:1. The”
as §1, with “each mouse” for “the mice”, “experiment,” for “experiment”, “dryness.” for “dryness. Then,”, “in” for “with”

DIO-NAFLD mice [1] = test: i.p. injection of ISAP1 in DIO-NAFLD mice: epididymal fat pad; assay type: in vivo, C57BL/6 mice
Source text: S110: a diet-induced obesity and nonalcoholic fatty liver disease (DIO-NAFLD) mouse model by HFD feeding may be established.
Thirty specific pathogen free (SPF) level healthy 6-week-old male C57BL/6 mice may be purchased from the Experimental Animal Center of Guangdong Province. A body mass of each mouse may be 18 g to 22 g. The mice may be divided into two groups, housed in a SPF-grade animal facility of SIAT. Six mice may be fed with ND (the ND contains 5% of fat; 53% of carbohydrate; 23% of protein, having total calories of […]) for 12 weeks to be a ND control group, and may be allowed to have food and water ad lib. The other mice may be fed with HFD (the HFD may be D12451, Research Diets, Inc.) for 12 weeks, and may be allowed to have food and water ad lib. Physiological indexes of the mice may be detected. […] In the present embodiment, an average body weight of the DIO-NAFLD mice may be more than 40 g. Comparison of average body weight of the mice of the established model with that of the mice in the ND control group is shown in FIG. 1. The arrow indicates a time point at which the HFD be started.
S121: effect of i.p. injection of ISAP1 on epididymal fat pad may be studied.
When the body weight of the each mouse fed with the HFD is more than 40 g, and when the blood glucose level of the each mouse is above 10 mMol, each DIO-NAFLD mouse may be treated with i.p. injection of ISAP1 for 6 consecutive weeks. The DIO-NAFLD mice may be divided into 4 groups, 6 mice in each group. ISAP1 may be dissolved in normal saline solution containing 0.01% of BSA. A dosage of 20 pmol/g of ISAP1 may be i.p. injected into each DIO-NAFLD mouse in group #1 once a day, and a dosage of 2 pmol/g of ISAP1 may be i.p. injected into each DIO-NAFLD mouse in group #2 once a day. OCN (mouse OCN protein) may be prepared and administered similarly as the ISAP1 at a dosage of 6 pmol/g to each mouse in group #3. The mice in group #4 may be treated with normal saline only as a HFD control group. After 6 weeks, the mice may be euthanized by application of 95% CO2, and epididymal fat pads of 4 mice selected from each group and an epididymal fat pad of a mouse from the ND control group may collected and weighed. Paraffin slices of each epididymal fat pad may be prepared, and an area of the adipocytes may be observed by microscopy.
Statistical analysis may be performed to compare with the HFD control group, wherein *: P<0.05, **: P<0.01, and ***: P<0.001.

DIO-NAFLD mice [2] = test: i.p. injection of ISAP1 in DIO-NAFLD mice: liver functions and blood lipids; assay type: in vivo, C57BL/6 mice; conditions: daily i.p. 6 weeks, even at 2 pmol/g, compared with HFD control group, FIG. 4
Source text: S123: the effect of i.p. injection of ISAP1 on liver functions and blood lipids in mice may be studied.
In S121, before sacrificing the mice, blood of each mouse may be collected from a tail vein and detected for a level of alanine aminotransferases (ALT), a level of alkaline phosphatases (ALP), a level of aspartate aminotransferases (AST), a serum level of cholesterols, a level of low-density lipoprotein (LDL), and a level of high-density lipoprotein (HDL) using a Roche […] (model cobas 8000) as per manufacturer's instructions.

wild-type C57BL/6 mice = test: intestinal fat (olive oil) absorption in normal mice, i.p. injection of peptide; assay type: in vivo; conditions: FIG. 5
Experimental: S140: effect of acute gavage of ISAP1 on intestinal fat absorption in normal mice may be studied.
Six-week-old male wild-type C57BL/6 mice may be divided into four groups, three in each group, three out of the four groups of mice may be intestinally perfused with 200 μl sterilized olive oil solution (Sigma), and the other one group of mice may be intestinally perfused with normal saline solution to be a negative control group. After 30 minutes, two groups of the mice treated with sterilized olive oil solution may be i.p. injected with OCN (6 pmol/g) and ISAP1 (6 pmol/g) respectively, and the other one group of the mice treated with sterilized olive oil solution may be i.p. injected with normal saline solution to be a saline control group. Further the mice of the negative control group solution may also be i.p. injected with normal saline solution to be the negative group. The mice of all four groups may be sacrificed 30 minutes later. Small intestine samples may be collected. The small intestine sample may be taken from a duodenum to a caecum, divided into 3 segments of equal length. After washing with pre-cooled normal saline solution, a segment close to the duodenum may be frozen and sliced, stained with oil red O and observed for fat absorption.

Q: How did the “content (level) of triglyceride in the feces” value (HFD mice) turn out when YLGASVPSPDPLEPT [ISAP1] was run?
A: Its value is “significantly increased”.

Q: What about the “size of the epididymal fat pads” value (DIO-NAFLD mice [1]; daily i.p. injection 6 weeks (20 or 2 pmol/g), compared with HFD control group, FIG. 2A) of the same sequence?
A: Its value is “significantly reduce the size”.

Q: And the “weight (average mass) of the epididymal fat pad” value (DIO-NAFLD mice [1]; daily i.p. injection 6 weeks (20 or 2 pmol/g), compared with HFD control group, FIG. 2B)?
A: The value was “significantly reduce the weight”.

Q: And the “sizes of adipocytes, H&E staining of epididymal fat pads” value (DIO-NAFLD mice [1]; daily i.p. injection 6 weeks, compared with HFD control group, FIG. 2C)?
A: The value was “significantly reduce sizes of adipocytes”.

Q: And the “average surface areas of single adipocytes calculated from H&E stained slices” value (DIO-NAFLD mice [1]; daily i.p. injection 6 weeks, double-blind, FIG. 2D)?
A: Its value is “significantly reduce the sizes of the adipocytes”.

Q: And the “level of alanine aminotransferases (ALT) in blood” value (DIO-NAFLD mice [2])?
A: The value was “effective in reducing”.

Q: What about the “level of alkaline phosphatases (ALP) in blood” value (DIO-NAFLD mice [2]) of the same sequence?
A: Its value is “effective in reducing”.

Q: What about the “level of aspartate aminotransferases (AST) in blood” value (DIO-NAFLD mice [2]) of the same sequence?
A: The value was “effective in reducing”.

Q: What about the “level of low-density lipoprotein (LDL)” value (DIO-NAFLD mice [2]) of the same sequence?
A: The value was “effective in reducing”.

Q: And the “serum level of cholesterols” value (DIO-NAFLD mice [2])?
A: The value was “effective in reducing”.

Q: And the “mouse intestinal absorption of the olive oil (oil red O-positive area / total area of intestinal villi)” value (wild-type C57BL/6 mice; 6 pmol/g i.p. 30 min after 200 μl olive oil, compared with saline control group)?
A: Its value is “effectively reduce”.

Q: And the “reduction in olive oil absorption compared with OCN treatment” value (wild-type C57BL/6 mice; 6 pmol/g i.p., OCN 6 pmol/g)?
A: The value was “even more effective than the OCN treatment”.
